According to patent publication US20260028328A1, “HETEROARYL DERIVATIVES AS DDRs INHIBITORS” (CHIESI FARMACEUTICI S.P.A., priority 2022, published 2026):

Tests used:
DDR2 = DDR2 (Homo sapiens (Human), UniProt Q16832); assay: DDR2 binding assay (LanthaScreen Europium Kinase Binding assay); settings: 5 nM DDR2, 10 nM Kinase Tracer 178, 1 h at rt; Ki from IC50 by Cheng-Prusoff; read-out: Ki DDR2
Procedure: (§1) DDR1 and DDR2 binding assays were performed using Life Technologies LanthaScreen™ Europium Kinase Binding assay. The compounds were incubated with 5 nM DDR1 (Carna Biosciences) or 5 nM DDR2 (Life Technologies) for 1 h at rt in white 384-well OptiPlate (PerkinElmer), containing 20 nM or 10 nM Kinase Tracer 178 respectively and 2 nM Europium labelled anti-GST antibody (Life Technologies) in assay buffer (50 mM HEPES pH 7.5, 10 mM MgCI2, 1 mM EGTA and 0.01% BRIJ35). The ratio of fluorescence emission 665 nm/615 nm after excitation at 340 nm was obtained using the Tecan Spark 20M plate reader. IC50 values were determined in GraphPad Prism 7.0 software, using 4 parameter model: log(inhibitor) vs. response. IC50 values were converted in Ki using the Cheng-Prusoff equation (Ki=IC50/(1+[Tracer]/Kd).

DDR1 = DDR1 (Homo sapiens (Human), UniProt Q08345); assay: DDR1 binding assay (LanthaScreen Europium Kinase Binding assay); settings: 5 nM DDR1, 20 nM Kinase Tracer 178, 1 h at rt; Ki from IC50 by Cheng-Prusoff; read-out: Ki DDR1
Procedure: as §1

Chain of DDR2 (Q16832 22-855): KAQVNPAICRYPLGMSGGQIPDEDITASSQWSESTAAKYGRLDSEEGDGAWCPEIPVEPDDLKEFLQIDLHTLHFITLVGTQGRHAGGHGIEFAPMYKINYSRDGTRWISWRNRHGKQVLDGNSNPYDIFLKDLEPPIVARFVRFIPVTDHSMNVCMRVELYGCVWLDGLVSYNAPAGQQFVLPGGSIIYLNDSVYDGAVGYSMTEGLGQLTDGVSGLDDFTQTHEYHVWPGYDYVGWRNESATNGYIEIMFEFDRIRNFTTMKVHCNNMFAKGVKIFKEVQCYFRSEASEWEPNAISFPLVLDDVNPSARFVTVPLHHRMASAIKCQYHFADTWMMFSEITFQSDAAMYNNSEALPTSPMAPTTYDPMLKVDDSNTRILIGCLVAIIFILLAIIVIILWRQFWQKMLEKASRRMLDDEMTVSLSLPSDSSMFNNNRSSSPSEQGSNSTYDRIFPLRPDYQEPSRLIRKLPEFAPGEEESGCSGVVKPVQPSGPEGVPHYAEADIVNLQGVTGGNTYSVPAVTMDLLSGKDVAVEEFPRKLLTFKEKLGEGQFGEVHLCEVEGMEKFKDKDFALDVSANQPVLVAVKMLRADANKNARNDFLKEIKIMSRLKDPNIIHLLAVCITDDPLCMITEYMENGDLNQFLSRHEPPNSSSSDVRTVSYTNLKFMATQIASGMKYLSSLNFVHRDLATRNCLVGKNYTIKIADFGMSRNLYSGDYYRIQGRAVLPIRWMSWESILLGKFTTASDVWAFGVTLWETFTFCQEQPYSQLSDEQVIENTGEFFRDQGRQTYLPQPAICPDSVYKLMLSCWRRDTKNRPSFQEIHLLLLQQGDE
Chain of DDR1 (Q08345 19-913): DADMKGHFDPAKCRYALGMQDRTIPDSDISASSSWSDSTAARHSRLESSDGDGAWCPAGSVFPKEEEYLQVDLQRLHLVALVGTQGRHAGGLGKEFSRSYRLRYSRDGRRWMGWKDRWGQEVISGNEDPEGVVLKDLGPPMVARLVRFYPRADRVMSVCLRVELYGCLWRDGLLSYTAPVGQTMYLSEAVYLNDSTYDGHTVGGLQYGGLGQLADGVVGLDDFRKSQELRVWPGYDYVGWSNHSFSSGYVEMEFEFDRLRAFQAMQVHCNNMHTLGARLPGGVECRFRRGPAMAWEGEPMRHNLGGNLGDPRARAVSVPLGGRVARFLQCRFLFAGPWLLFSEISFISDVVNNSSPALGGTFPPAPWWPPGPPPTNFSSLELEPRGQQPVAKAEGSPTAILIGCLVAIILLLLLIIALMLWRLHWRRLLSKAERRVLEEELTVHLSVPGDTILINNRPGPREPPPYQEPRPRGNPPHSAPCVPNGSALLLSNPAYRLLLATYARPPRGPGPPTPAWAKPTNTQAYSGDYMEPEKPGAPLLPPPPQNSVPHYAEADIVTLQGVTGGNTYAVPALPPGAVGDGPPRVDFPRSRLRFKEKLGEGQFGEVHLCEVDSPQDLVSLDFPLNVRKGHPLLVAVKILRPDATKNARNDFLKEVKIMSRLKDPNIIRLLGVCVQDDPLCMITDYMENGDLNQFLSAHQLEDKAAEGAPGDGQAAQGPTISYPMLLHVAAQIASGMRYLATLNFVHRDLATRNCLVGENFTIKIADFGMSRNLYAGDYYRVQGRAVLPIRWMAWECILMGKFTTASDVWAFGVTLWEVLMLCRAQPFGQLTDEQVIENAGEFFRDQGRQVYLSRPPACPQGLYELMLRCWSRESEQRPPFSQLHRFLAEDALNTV

Row | Ki (DDR2) | Ki (DDR1) | Compound
1 | 5 to 25 nM |  | Cc1ccc(C(=O)Nc2cncc(C(F)(F)F)c2)cc1C(C)C1CN(c2cnn3ccncc23)C1 (stereo not shown) [Example 175, 4-methyl-3-(1-(1-(pyrazolo[1,5-a]pyrazin-3-yl)azetidin-3-yl)ethyl)-N-(5-(trifluoromethyl)pyridin-3-yl)benzamide]
2 | < 5 nM | < 5 nM | Cc1ccc(C(=O)Nc2cccc(OC(F)(F)F)c2)cc1OC1CN(c2cnn3ccncc23)C1 [Example 161, 4-methyl-3-((1-(pyrazolo[1,5-a]pyrazin-3-yl)azetidin-3-yl)oxy)-N-(3-(trifluoromethoxy)phenyl)benzamide]
3 | 25 to 100 nM | 5 to 25 nM | Cc1ccc(C(=O)Nc2cncc(C(F)(F)F)c2)cc1NC1CN(c2cncnc2)C1 [Example 134, 4-methyl-3-((1-(pyrimidin-5-yl)azetidin-3-yl)amino)-N-(5-(trifluoromethyl)pyridin-3-yl)benzamide]
4 | 25 to 100 nM | 5 to 25 nM | Cc1ccc(C(=O)Nc2cncc(C(F)(F)F)c2)cc1S(=O)(=O)C1CN(c2cnn3ccncc23)C1 [Example 179, 4-methyl-3-((1-(pyrazolo[1,5-a]pyrazin-3-yl)azetidin-3-yl)sulfonyl)-N-(5-(trifluoromethyl)pyridin-3-yl)benzamide]
5 | 25 to 100 nM | 5 to 25 nM | Cc1ccc(C(=O)Nc2cc(C(C)(C)C)on2)cc1NC1CN(c2cnn3ccncc23)C1 [Example 150, N-(5-(tert-butyl)isoxazol-3-yl)-4-methyl-3-((1-(pyrazolo[1,5-a]pyrazin-3-yl)azetidin-3-yl)amino)benzamide]
6 | < 5 nM | < 5 nM | Cc1ccc(C(=O)Nc2cncc(C(F)(F)F)c2)cc1OC1CN(c2cnn3ccccc23)C1 [Example 168, 4-methyl-3-((1-(pyrazolo[1,5-a]pyridin-3-yl)azetidin-3-yl)oxy)-N-(5-(trifluoromethyl)pyridin-3-yl)benzamide]
7 | 5 to 25 nM | < 5 nM | Cc1ccc(C(=O)Nc2cc(C(F)(F)F)ccc2Cl)cc1OC1CN(c2cnn3ccncc23)C1 [Example 160, N-(2-chloro-5-(trifluoromethyl)phenyl)-4-methyl-3-((1-(pyrazolo[1,5-a]pyrazin-3-yl)azetidin-3-yl)oxy)benzamide]
8 | 5 to 25 nM | < 5 nM | Cc1ccc(C(=O)Nc2cc(C(C)(C)C)n(C)n2)cc1NC1CN(c2cnn3ccncc23)C1 [Example 156, N-(5-(tert-butyl)-1-methyl-1H-pyrazol-3-yl)-4-methyl-3-((1-(pyrazolo[1,5-a]pyrazin-3-yl)azetidin-3-yl)amino)benzamide]
9 | 5 to 25 nM | < 5 nM | COc1ccc(C(F)(F)F)cc1NC(=O)c1ccc(C)c(OC2CN(c3cnn4ccncc34)C2)c1 [Example 153, N-(2-methoxy-5-(trifluoromethyl)phenyl)-4-methyl-3-((1-(pyrazolo[1,5-a]pyrazin-3-yl)azetidin-3-yl)oxy)benzamide]
10 | < 5 nM | < 5 nM | O=C(Nc1cncc(C(F)(F)F)c1)c1ccc(OC(F)F)c(OC2CN(c3cnn4ccncc34)C2)c1 [Example 182, 4-(difluoromethoxy)-3-((1-(pyrazolo[1,5-a]pyrazin-3-yl)azetidin-3-yl)oxy)-N-(5-(trifluoromethyl)pyridin-3-yl)benzamide]
11 | 5 to 25 nM | < 5 nM | Cc1ccc(C(=O)Nc2cncc(C(F)(F)F)c2)cc1NC1CN(c2cncc(-c3cnn(C)c3)c2)C1 [Example 144, 4-methyl-3-((1-(5-(1-methyl-1H-pyrazol-4-yl)pyridin-3-yl)azetidin-3-yl)amino)-N-(5-(trifluoromethyl)pyridin-3-yl)benzamide]
12 | < 5 nM | < 5 nM | Cc1ccc(C(=O)Nc2cncc(C(F)(F)F)c2)cc1SC1CN(c2cnn3ccncc23)C1 [Example 178, 4-methyl-3-((1-(pyrazolo[1,5-a]pyrazin-3-yl)azetidin-3-yl)thio)-N-(5-(trifluoromethyl)pyridin-3-yl)benzamide]
13 | 5 to 25 nM | < 5 nM | Cc1ccc(C(=O)Nc2cncc(C(F)(F)F)c2)cc1NC1CN(c2cnn3ccncc23)C1 [Example 140, 4-methyl-3-((1-(pyrazolo[1,5-a]pyrazin-3-yl)azetidin-3-yl)amino)-N-(5-(trifluoromethyl)pyridin-3-yl)benzamide]
14 | 5 to 25 nM | < 5 nM | Cc1ccc(OC(F)(F)F)cc1NC(=O)c1ccc(C)c(OC2CN(c3cnn4ccncc34)C2)c1 [Example 159, 4-methyl-N-(2-methyl-5-(trifluoromethoxy)phenyl)-3-((1-(pyrazolo[1,5-a]pyrazin-3-yl)azetidin-3-yl)oxy)benzamide]
15 | 5 to 25 nM | < 5 nM | Cc1ccc(C(=O)Nc2cncc(C(F)(F)F)c2)cc1OC1CN(c2cncc(C(F)F)c2)C1 [Example 165, 3-((1-(5-(difluoromethyl)pyridin-3-yl)azetidin-3-yl)oxy)-4-methyl-N-(5-(trifluoromethyl)pyridin-3-yl)benzamide]
16 | 5 to 25 nM | < 5 nM | Cc1ccc(C(=O)Nc2cncc(C(F)(F)F)c2)cc1N(C)C1CN(c2cnn3ccncc23)C1 [Example 151, 4-methyl-3-(methyl(1-(pyrazolo[1,5-a]pyrazin-3-yl)azetidin-3-yl)amino)-N-(5-(trifluoromethyl)pyridin-3-yl)benzamide]
17 | < 5 nM | < 5 nM | Cc1ccc(C(=O)Nc2cc(F)cc(C(F)(F)F)c2)cc1OC1CN(c2cnn3ccncc23)C1 [Example 162, N-(3-fluoro-5-(trifluoromethyl)phenyl)-4-methyl-3-((1-(pyrazolo[1,5-a]pyrazin-3-yl)azetidin-3-yl)oxy)benzamide]
18 | 5 to 25 nM | 5 to 25 nM | Cc1ccc(C(=O)Nc2cc(C(C)(C)C)nn2C)cc1OC1CN(c2cnn3ccncc23)C1 [Example 163, N-(3-(tert-butyl)-1-methyl-1H-pyrazol-5-yl)-4-methyl-3-((1-(pyrazolo[1,5-a]pyrazin-3-yl)azetidin-3-yl)oxy)benzamide]
19 | 5 to 25 nM | < 5 nM | Cc1ccn2ncc(N3CC(Oc4cc(C(=O)Nc5cncc(C(F)(F)F)c5)ccc4C)C3)c2n1 [Example 167, 4-methyl-3-((1-(5-methylpyrazolo[1,5-a]pyrimidin-3-yl)azetidin-3-yl)oxy)-N-(5-(trifluoromethyl)pyridin-3-yl)benzamide]
20 | 5 to 25 nM |  | Cc1ccc(C(=O)Nc2cncc(C(F)(F)F)c2)cc1OC1CN(c2cncc(C(N)=O)c2)C1 [Example 139, 5-(3-(2-methyl-5-((5-(trifluoromethyl)pyridin-3-yl)carbamoyl)phenoxy)azetidin-1-yl)nicotinamide]
21 | 5 to 25 nM | < 5 nM | COc1ccc(C(=O)Nc2cncc(C(F)(F)F)c2)cc1NC1CN(c2cnn3ccncc23)C1 [Example 183, 4-methoxy-3-((1-(pyrazolo[1,5-a]pyrazin-3-yl)azetidin-3-yl)amino)-N-(5-(trifluoromethyl)pyridin-3-yl)benzamide]
22 | < 5 nM | < 5 nM | Cc1ccc(C(=O)Nc2cncc(C(F)(F)F)c2)cc1CC1CN(c2cnn3ccncc23)C1 [Example 171, 4-methyl-3-((1-(pyrazolo[1,5-a]pyrazin-3-yl)azetidin-3-yl)methyl)-N-(5-(trifluoromethyl)pyridin-3-yl)benzamide]
23 | 25 to 100 nM | 5 to 25 nM | CCc1cc(NC(=O)c2ccc(C)c(OC3CN(c4cnn5ccncc45)C3)c2)no1 [Example 152, N-(5-ethylisoxazol-3-yl)-4-methyl-3-((1-(pyrazolo[1,5-a]pyrazin-3-yl)azetidin-3-yl)oxy)benzamide]
24 | > 100 nM | 5 to 25 nM | Cc1ccc(C(=O)Nc2cncc(C(F)(F)F)c2)cc1OC1CN(c2cnn3ccc(N4CCC(CO)CC4)nc23)C1 [Example 180, 3-((1-(5-(4-(hydroxymethyl)piperidin-1-yl)pyrazolo[1,5-a]pyrimidin-3-yl)azetidin-3-yl)oxy)-4-methyl-N-(5-(trifluoromethyl)pyridin-3-yl)benzamide]
25 | < 5 nM | < 5 nM | Cc1ccc(C(=O)Nc2cc(C(C)(C)C)on2)cc1OC1CN(c2cnn3ccncc23)C1 [Example 155, N-(5-(tert-butyl)isoxazol-3-yl)-4-methyl-3-((1-(pyrazolo[1,5-a]pyrazin-3-yl)azetidin-3-yl)oxy)benzamide]
26 | 5 to 25 nM | < 5 nM | CNc1ccn2ncc(N3CC(Oc4cc(C(=O)Nc5cncc(C(F)(F)F)c5)ccc4C)C3)c2n1 [Example 141, 4-methyl-3-((1-(5-(methylamino)pyrazolo[1,5-a]pyrimidin-3-yl)azetidin-3-yl)oxy)-N-(5-(trifluoromethyl)pyridin-3-yl)benzamide]
27 | 5 to 25 nM |  | Cc1ccc(C(=O)Nc2cncc(C(F)(F)F)c2)cc1C(C)C1CN(c2cnn3ccncc23)C1 (stereo not shown) [Example 176, 4-methyl-3-(1-(1-(pyrazolo[1,5-a]pyrazin-3-yl)azetidin-3-yl)ethyl)-N-(5-(trifluoromethyl)pyridin-3-yl)benzamide]
28 | 5 to 25 nM | < 5 nM | COc1ccc(OC(F)(F)F)cc1NC(=O)c1ccc(C)c(OC2CN(c3cnn4ccncc34)C2)c1 [Example 158, N-(2-methoxy-5-(trifluoromethoxy)phenyl)-4-methyl-3-((1-(pyrazolo[1,5-a]pyrazin-3-yl)azetidin-3-yl)oxy)benzamide]

Row | Compound | Ki (DDR2) | Ki (DDR1)
29 | 4-methyl-3-((1-(pyrimidin-5-yl)azetidin-3-yl)thio)-N-(5-(trifluoromethyl)pyridin-3-yl)benzamide [Example 177] | 25 to 100 nM | 5 to 25 nM
